Data on eight compounds can be found in PubChem BioAssay (NCI).

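Five concentrations, 48 hours, 96-well plates. At the GI50, growth is halved. TGI denotes the concentration required for complete inhibition of growth.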

Test systems include DU-145 prostate; HOP-62 NSCLC; HS 578T breast; K-562 leukemia; KM12 colon; NCI-H522 lung; OVCAR-4 ovarian; SF-268 CNS; TK-10 renal; UACC-257 melanoma.
Holding throughout (test): NCI-60 cell line screen, 48 h

Turning to `CC[C@]1(O)CC2CN(CCc3c([nH]c4ccccc34)[C@@](C(=O)OC)(c3cc4c(cc3OC)N(C)[C@H]3[C@@](O)(C(=O)OC)[C@H](OC(C)=O)[C@]5(CC)C=CCN6CC[C@]43[C@@H]65)C2)C1` (stereo partly drawn), the GI50 in the assay on DU-145 prostate, in the assay on HOP-62 NSCLC, in the assay on HS 578T breast, in the assay with K-562 leukemia, in the assay with KM12 colon and in the assay on NCI-H522 lung was less than 0.005 µM throughout. Moreover, the GI50 was 0.0303 µM with OVCAR-4 ovarian, less than 0.005 µM with SF-268 CNS and 0.148 µM with TK-10 renal. Further, the TGI in the assay on DU-145 prostate amounted to 0.0282 µM; in the assay on HOP-62 NSCLC, 9.89 µM; in the assay on HS 578T breast, 10.2 µM; in the assay with K-562 leukemia, 2.26 µM; with KM12 colon, 0.141 µM; in the assay with NCI-H522 lung, 0.00536 µM. In addition, the TGI with OVCAR-4 ovarian was greater than 50 µM; in the assay on SF-268 CNS, 8.08 µM; in the assay on TK-10 renal, 13.9 µM.
`CSc1nc2c(c(=O)[nH]1)N=C1c3ccccc3C(=O)C1C(c1ccc(F)cc1)N2` (stereo not drawn): the GI50 in the assay on DU-145 prostate was 16.2 µM; in the assay with HOP-62 NSCLC, 11.9 µM; with HS 578T breast, 5.85 µM; in the assay on K-562 leukemia, 4.05 µM; in the assay on KM12 colon, 3.77 µM; in the assay on NCI-H522 lung it was 3.17 µM. The GI50 was 15.4 µM with OVCAR-4 ovarian, 12.7 µM with SF-268 CNS, 12.9 µM in the assay with TK-10 renal and 26 µM with UACC-257 melanoma. The TGI was 42.2 µM with DU-145 prostate; 33.7 µM in the assay with HOP-62 NSCLC; 43.6 µM in the assay on HS 578T breast; greater than 100 µM in the assay on K-562 leukemia; 15.6 µM in the assay with KM12 colon; 37.9 µM with NCI-H522 lung. Also, the TGI in the assay on OVCAR-4 ovarian was 67 µM; in the assay with SF-268 CNS, 49.9 µM; in the assay on TK-10 renal it was 37.6 µM; with UACC-257 melanoma, greater than 100 µM.
In the case of `CCOP(=O)(OCC)C(NC(c1ccccc1)c1ccccc1)c1ccccc1` (stereo not drawn), the GI50 in the assay on DU-145 prostate was 15 µM; in the assay on HOP-62 NSCLC it was 16.6 µM; with HS 578T breast, 1.89 µM; in the assay with K-562 leukemia, 7.4 µM; in the assay on KM12 colon, 18.4 µM; with NCI-H522 lung, 17.1 µM. Also, the GI50 in the assay with OVCAR-4 ovarian was 51.8 µM; in the assay on SF-268 CNS, 15.6 µM; in the assay on TK-10 renal it was 14.7 µM. Moreover, the TGI turned out to be 30 µM with DU-145 prostate; 30.3 µM with HOP-62 NSCLC; 13.5 µM in the assay on HS 578T breast; 22.2 µM in the assay on K-562 leukemia; 34.6 µM with KM12 colon; 48 µM with NCI-H522 lung. Moreover, the TGI with OVCAR-4 ovarian is greater than 100 µM; with SF-268 CNS it was 35.4 µM; in the assay with TK-10 renal, 28.2 µM.
As to `NC(=O)c1cnc(N[C@@H]2CCCC[C@@H]2N)nc1Nc1cccc(-n2nccn2)c1`, the GI50 with DU-145 prostate is 3.84 µM; with HOP-62 NSCLC it was 4.69 µM; with HS 578T breast it was 3.37 µM; in the assay on K-562 leukemia, 3.94 µM; in the assay on KM12 colon it was 2.15 µM; with NCI-H522 lung, 4.14 µM. The GI50 in the assay with OVCAR-4 ovarian is 7.01 µM; in the assay on SF-268 CNS, 5.82 µM; in the assay on TK-10 renal, 5.55 µM; with UACC-257 melanoma it was 2.02 µM. Moreover, the TGI in the assay on DU-145 prostate was found to be 15.8 µM; in the assay with HOP-62 NSCLC, 17.7 µM; in the assay on HS 578T breast it was 20.7 µM; in the assay on K-562 leukemia it was 14.7 µM; in the assay on KM12 colon, 10.2 µM; in the assay with NCI-H522 lung, 17.5 µM. For the same compound, the TGI in the assay with OVCAR-4 ovarian amounted to 19.6 µM; with SF-268 CNS it was 19.7 µM; in the assay with TK-10 renal, 17.8 µM; in the assay with UACC-257 melanoma it was 4.49 µM.
`O=C(O)C(=Cc1ccnc2ccccc12)C(=O)O`: the TGI in the assay on DU-145 prostate, with HOP-62 NSCLC, in the assay with HS 578T breast, in the assay with K-562 leukemia, in the assay with KM12 colon and in the assay on NCI-H522 lung was greater than 100 µM throughout. In addition, the TGI in the assay on SF-268 CNS, with TK-10 renal and with UACC-257 melanoma was greater than 100 µM each time.
With `CC(C)(C)N1CCC1C(N)=O` (stereo not drawn), the GI50 with DU-145 prostate, in the assay with HOP-62 NSCLC, with HS 578T breast, in the assay with K-562 leukemia, in the assay with KM12 colon and with NCI-H522 lung was greater than 100 µM each time. Besides, the GI50 with OVCAR-4 ovarian, in the assay on SF-268 CNS, in the assay on TK-10 renal and in the assay with UACC-257 melanoma was greater than 100 µM each time. In addition, the TGI in the assay with DU-145 prostate, in the assay on HOP-62 NSCLC, in the assay on HS 578T breast, in the assay on K-562 leukemia, with KM12 colon and in the assay on NCI-H522 lung was greater than 100 µM throughout. Moreover, the TGI in the assay with OVCAR-4 ovarian, in the assay with SF-268 CNS, in the assay on TK-10 renal and with UACC-257 melanoma was greater than 100 µM each time.
Turning to `N[C@@H](Cc1c[nH]c2ccccc12)C(=O)NC1CCN(C(=O)c2c[nH]c3ccccc23)CC1`, the GI50 with DU-145 prostate is 72.2 µM; with HOP-62 NSCLC it was greater than 100 µM; in the assay with HS 578T breast, 71.3 µM; in the assay with K-562 leukemia, greater than 100 µM; in the assay on KM12 colon it was 84.8 µM; in the assay on NCI-H522 lung it was greater than 100 µM. Also, the GI50 in the assay on OVCAR-4 ovarian was 69.2 µM; in the assay on SF-268 CNS, greater than 100 µM; in the assay on TK-10 renal it was greater than 100 µM. Further, the TGI in the assay on DU-145 prostate, in the assay with HOP-62 NSCLC, with HS 578T breast, with K-562 leukemia, in the assay on KM12 colon and in the assay on NCI-H522 lung was greater than 100 µM throughout. Moreover, the TGI in the assay on OVCAR-4 ovarian, in the assay on SF-268 CNS and in the assay on TK-10 renal was greater than 100 µM each time.
As for `Cc1ccc2c(c1)nc(C(=O)c1ccco1)c(C(F)(F)F)[n+]2[O-]`, the GI50 in the assay with DU-145 prostate is greater than 100 µM; in the assay on HOP-62 NSCLC, greater than 100 µM; with HS 578T breast it was 2.33 µM; with K-562 leukemia it was 40.5 µM; in the assay with KM12 colon, greater than 100 µM; in the assay on NCI-H522 lung, 66.7 µM. Moreover, the GI50 with OVCAR-4 ovarian is 76.3 µM; with SF-268 CNS, greater than 100 µM; with TK-10 renal, greater than 100 µM; with UACC-257 melanoma, 63.4 µM. Further, the TGI is greater than 100 µM in the assay with DU-145 prostate; greater than 100 µM in the assay on HOP-62 NSCLC; 5.76 µM in the assay with HS 578T breast; greater than 100 µM in the assay with K-562 leukemia; greater than 100 µM with KM12 colon; greater than 100 µM in the assay with NCI-H522 lung. Besides, the TGI in the assay with OVCAR-4 ovarian, in the assay on SF-268 CNS, in the assay with TK-10 renal and in the assay with UACC-257 melanoma was greater than 100 µM each time.
